The text below walks through data of US12648921B2, “Capric acid and myristic acid compositions for treating conditions” (The Cleveland Clinic Foundation, priority 2016, dated 2026).

The test deals with house dust mite (D. Pteronyssinus) extract (HDME) sensitized and challenged mice. The test is described as follows: Airway hyper-reactivity and lung mechanics in house dust mite extract sensitized mice fed purified MCF diets. The format is in vivo. The conditions noted are these: mice fed purified MCF diet, 100 mg/day (4 g/kg body weight); for overall airway constriction (Rrs) induced by increasing dose of methacholine: FIG. 1, from six weeks before HDME sensitization; for ability of the lungs to stretch (Crs, lung compliance) in response to increasing dose of methacholine: FIG. 2; for stiffness of the lungs (Ers) in response to increasing dose of methacholine: FIG. 3; for amount of forcefully exhaled air (FEV) in response to increasing dose of methacholine: FIG. 4. Here is the method: Mice were fed with standard, coconut oil or MCF supplemented diets starting six weeks before allergen sensitization. Isofluorane anesthetized mice received 100 ug house dust mite (D. Pteronyssinus) extract (HDME) (Greer Labs, NC) in […] by nasal aspiration. Five days later mice were challenged daily with 10 ug HDME for 5 days. Three days, after the last HDME exposure, airway hyper-reactivity is measured and lungs collected for analysis. The diets were 15 kcal % fat at a dose of 21 g coconut oil or purified MCF per kg diet. Based on the daily food intake of 4.75 g/day/25 g mouse, each mouse consumes 100 mg of coconut oil or MCF per day. The results of this examples are shown in FIGS. 1-4, which show the results with the mice treated with the various fatty acids, which are present mainly as triglycerides in coconut oil.

In the case of `CCCCCCCCCC(=O)O` [C10, capric acid], the “overall airway constriction (Rrs) induced by increasing dose of methacholine” value is “inhibited”; the “ability of the lungs to stretch (Crs, lung compliance) in response to increasing dose of methacholine” value is “improved”; the “stiffness of the lungs (Ers) in response to increasing dose of methacholine” value is recorded as “decreased”; the “amount of forcefully exhaled air (FEV) in response to increasing dose of methacholine” value is given as “increased”.
In the same order, the values of `CCCCCCCCCCCCCC(=O)O` [C14, myristic acid] are “inhibited”, “improved”, “decreased” and “increased”.
